This data set in a line: gradient 5% acetonitrile 3 min, to 50% in 2 min, to 85% in 15 min, held 3 min, 100 µL/min. The note with it: column: Zorbax Extend-C18 2.1 x 50 mm; eluents: water / acetonitrile, 0.1% formic acid. A digest of the protocol: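 The mobile phases were water and acetonitrile, each with 0.1% formic acid, pumped at 100 μL/min through a Zorbax Extend-C18 column (2.1 × 50 mm, 1.8 μm). Pure standards were injected as mixtures of ~100 molecules and detected by a quadrupole time-of-flight mass spectrometer in positive and negative ionization mode. Retention time came from computationally picked adduct peaks, each inspected by hand.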
Regarding `CCOCCCNS(=O)(=O)c1cc(-c2ccno2)cs1`, the RP-LC retention time amounted to 796 s. In turn, `CC(C)NC(=O)N1CCCC(c2cccc(C(=O)NCCCN3CCCCC3)c2)C1` (stereo not given) had an RP-LC retention time of 623 s. In the case of `CC(C)C(NC(=O)C1CCCN(S(=O)(=O)Cc2ccccc2)C1)C(C)C` (stereo not given), the RP-LC retention time amounted to 962 s. The molecule `Cc1ccccc1OCc1nc(-c2ccc3ncn(C(C)C)c3c2)no1` had an RP-LC retention time of 839 s.

As for `CNC(=O)Nc1ccc(OC)c(NC(=O)NC(=O)c2cc(F)c(F)cc2Cl)c1`, the RP-LC retention time came out at 784 s. As to `Cc1ccccc1CN1C(=O)N(c2cccc(F)c2)c2ncccc2S1(=O)=O`, the RP-LC retention time amounted to 1090 s. In turn, `CCN1C(=O)c2cc(S(=O)(=O)Nc3ccc(F)c(C)c3)ccc2Oc2cccnc21` yielded an RP-LC retention time of 1060 s. With `Clc1cccc(-c2nc(-c3cccc(-c4ccn[nH]4)c3)no2)c1`, the RP-LC retention time worked out at 1120 s. The result for `CCCS(=O)(=O)NCc1ccc2c(c1)CCN2C(=O)c1ccccc1` reads 810 s; that for `O=C1C2CCCN2C(=O)c2ccccc2N1Cc1ccccc1` (stereo not given), 744 s. With `CCSC1=NCCN1C(=O)c1ccc(C(F)(F)F)cc1`, the RP-LC retention time came out at 679 s.

In turn, `CC(=O)N1CCc2cc(N3CC(C(=O)Nc4cccc(Cl)c4C)CC3=O)ccc21` (stereo not given) yielded an RP-LC retention time of 723 s.

As for `Cc1ccc(-c2cc(C(=O)NCCN3CCCC3)n(C)c2)cc1`, the RP-LC retention time came to 670 s. In turn, `O=C(NCc1ccco1)c1ccc(NS(=O)(=O)c2cccc(C(F)(F)F)c2)cc1` showed an RP-LC retention time of 818 s. The result for `CCOCCCNC(=O)C1CCCN(c2nc3ccc(Br)cc3[nH]2)C1` (stereo not given) reads 625 s; that for `O=C(NCc1csc(-c2ccccc2)n1)C1CCN(C(=O)Nc2ccccc2)CC1`, 766 s. In the case of `COc1ccc(NC(=O)COc2ccc(-c3nnc4n3CCCC4)cc2)c(OC)c1` it was 684 s; in that of `CCCNS(=O)(=O)c1cc(-c2c(CC)noc2NC(C)=O)ccc1OC`, 774 s. In the case of `CN(CC1CCOC1)C(=O)c1cccc(Cl)c1` (stereo not given) it was 672 s; in that of `O=C(NCc1cccc(Cl)c1)C1CCN(c2cnc(N3CCCC3)nc2)CC1`, 690 s; in that of `Cc1ccc(F)cc1NC(=O)Cn1cnc2nc(N3CCCC(C(=O)NC4CC4)C3)sc2c1=O` (stereo not given), 686 s. `CCn1c(=O)c(C)nc2cc(-c3noc(-c4ccc(Br)o4)n3)ccc21`: the RP-LC retention time was determined as 1040 s. The result for `COc1ccc(N2CCN(c3nc(C)cc(C)n3)CC2)cc1` reads 745 s; that for `COc1ccccc1CNC(=O)CSc1cc(N2CCN(c3ccccc3OC)CC2)ncn1`, 888 s; that for `CCC(=O)N1c2ccc(S(=O)(=O)N3CCCCC3)cc2CC1C(=O)NC1CC1` (stereo not given), 758 s. Regarding `COCCCN1C(=O)CSc2c(c3ccccc3n2C)C1C(=O)NCc1ccccc1OC` (stereo not given), the RP-LC retention time stood at 893 s. The result for `O=C(CC(c1cccs1)N1Cc2ccccc2C1=O)N1CCN(c2ccccn2)CC1` (stereo not given) reads 632 s; that for `COc1ccc(CCC(=O)NCC(C)(O)c2ccccc2)cc1` (stereo not given), 709 s. For the molecule `CC(C)c1ccc(NC(=O)C2CC(=O)N(c3cccc(NC(=O)C4CCC4)c3)C2)cc1` (stereo not given), the RP-LC retention time was 929 s. As to `COc1ccc(CCNC(=O)C2CCCN(S(=O)(=O)c3ccc(OC)c(C)c3)C2)cc1` (stereo not given), the RP-LC retention time worked out at 891 s. For the molecule `COc1ccc(S(=O)(=O)N2CCC(c3cnn(-c4ccc(C)cc4)c3)CC2)cc1`, the RP-LC retention time was determined as 1110 s.

`CSc1nnc(-c2nn(C)c3c2CN(C(=O)c2cccc(N(C)C)c2)CC3)n1C` returned an RP-LC retention time of 669 s. `C=CCN1CCN(c2ccc3nnc(CCc4nc(-c5ccc(F)cc5)no4)n3n2)CC1` gave an RP-LC retention time of 622 s. `O=C(c1ccc(=O)n(CCN2CCOCC2)c1)N1CCC(Cc2ccccc2)CC1` showed an RP-LC retention time of 637 s.

In the case of `Cc1ccc(C2=NC3(CCN(C(=O)Cc4ccccc4C)CC3)ON2)cc1`, the RP-LC retention time came out at 933 s. With `COc1ccc(N2CCN(C(=O)c3cn4nc(Cl)ccc4n3)CC2)cc1`, the RP-LC retention time stood at 714 s. Turning to `Cc1ccc(-n2nc3c(N4CCCC(C(=O)NCc5ccccc5)C4)nnc(C)c3c2C)cc1` (stereo not given), the RP-LC retention time is 754 s.

Consider `CCCN(C)C(=O)c1ccc2nc(-c3ccc(C)cc3)cn2c1`, for which the RP-LC retention time was found to be 641 s. Regarding `CCn1nccc1C(=O)NCCn1c(=O)n(Cc2ccccc2)c2cccnc21`, the RP-LC retention time amounted to 740 s. `O=C(Cc1ccccc1Br)NC1CCCN(c2cc(-c3ccccc3)[nH]n2)C1` (stereo not given) gave an RP-LC retention time of 811 s.

Molecule `CCCNc1cc(N2CCC(CCC(=O)Nc3ccc4c(c3)OCCO4)CC2)ncn1` returned an RP-LC retention time of 682 s. Consider `C[C@H]1CN(C(=O)c2ccc3ccccc3n2)C[C@@H]1c1nc(-c2cccnc2)no1`, for which the RP-LC retention time is 821 s.

As for `CCNC(=O)N1CCCC(c2cccc(C(=O)NC3CCCC3)c2)C1` (stereo not given), the RP-LC retention time amounted to 764 s. For `O=C([C@@H]1C[C@H](F)CN1S(=O)(=O)c1ccc(Cl)cc1)N1CCCCC1`, the RP-LC retention time was determined as 852 s. For the molecule `O=C(CC(c1ccc(F)cc1)N1Cc2ccccc2C1=O)NCCCN1CCCC1` (stereo not given), the RP-LC retention time came to 619 s.

Turning to `O=c1c2cc(-c3cccs3)nn2cnn1Cc1nc(-c2ccc(OC(F)(F)F)cc2)no1`, the RP-LC retention time is 1180 s. `Cc1nnc(-c2ccc3ccn(CC(=O)Nc4cccc(F)c4)c3c2)o1`: the RP-LC retention time turned out to be 808 s. `O=C(CSC1CCCC1)NCCCC(=O)Nc1cccc2cccnc12` registered an RP-LC retention time of 781 s. In the case of `CCn1c(=O)c(N2CCN(C(=O)Nc3ccc(Br)cc3)CC2)nc2ccccc21` it was 1030 s; in that of `COc1cc(OC)cc(-c2nc(-c3ccc4c(c3)ncn4CCN3CCCCC3)no2)c1`, 680 s. `O=C(c1ccc(Cl)cc1)N(CCS(=O)(=O)N1CCNCC1)CC1CCCO1` (stereo not given) registered an RP-LC retention time of 581 s. Molecule `CN1c2cc(C(=O)NC3CCCCC3)ccc2C(=O)N2CCCCC21` (stereo not given) had an RP-LC retention time of 824 s. As for `COc1ccc(CNC(=O)CN2CCN(Cc3ccc(C)cc3)C(=O)C2=O)cc1`, the RP-LC retention time is 734 s.

`Cn1c(=O)c2nc(S(=O)(=O)CCC(=O)Nc3cc(F)ccc3F)n(C)c2n(C)c1=O`: the RP-LC retention time worked out at 730 s. For `CCOC(=O)c1noc2nc(C)nc(NCC3CCN(Cc4ccccc4F)CC3)c12`, the RP-LC retention time turned out to be 595 s. `CS(=O)(=O)N1CCC(C(=O)Nc2sccc2C#N)CC1` returned an RP-LC retention time of 662 s.

In turn, `Cc1nn(CCCC(=O)N2CCN(c3ccccn3)CC2)c(=O)c2cc3sccc3n12` gave an RP-LC retention time of 587 s.

The molecule `Cc1ccc(C)c(NC(=O)C2CC(=O)N(c3n[nH]c4cccc(F)c34)C2)c1` (stereo not given) registered an RP-LC retention time of 758 s. `Cc1sc(NC(=O)CCc2ccccc2)nc1-c1ccc2c(c1)NC(=O)CO2` showed an RP-LC retention time of 888 s. For `CCOC(=O)C1=C(CN2CCCCC2)NC(=O)NC1c1ccc(OC(C)C)cc1` (stereo not given), the RP-LC retention time turned out to be 646 s. Molecule `Fc1cccc(-c2nc(-c3ccnc(N4CCOCC4)c3)no2)c1` came in with an RP-LC retention time of 967 s. The result for `Cc1nc(CC(=O)Nc2cc(F)cc(F)c2)cs1` reads 796 s. The result for `COCCNc1c(-c2ccccc2)nc2sc(C(=O)N(C)C)c(C)n12` reads 643 s; that for `CC(C)c1ccc(CNC(=O)c2nnc(-c3ccc(S(=O)(=O)N(C)C)cc3)o2)cc1`, 1010 s; that for `CSc1cccc(NC(=O)c2nnn(Cc3ccc(F)cc3)c2-n2cccc2)c1`, 1150 s. Turning to `COc1ccc2c(c1)OC1(C)CC2C(S(=O)(=O)c2ccc(C)cc2)C(=O)N1` (stereo not given), the RP-LC retention time came to 877 s. In the case of `Cc1nnc(-c2cn(CC(=O)NCc3cccc(Br)c3)c3ccccc23)o1` it was 838 s. As to `Cc1ccc(-c2noc(Cn3nc(-c4ccccc4)ccc3=O)n2)cc1`, the RP-LC retention time turned out to be 1080 s. Turning to `Cn1cc(CC(=O)NCc2cc(-c3ccc4c(c3)OCO4)on2)c2ccccc21`, the RP-LC retention time came out at 813 s. The molecule `CC(=O)c1c(N(C)CCO)nc2ccc(Cl)cc2c1-c1ccccc1` showed an RP-LC retention time of 834 s.

Molecule `CN1CCN(C(=O)Cn2cccc2-c2nc(-c3ccccc3)cs2)CC1` showed an RP-LC retention time of 664 s.

Molecule `Cc1ccc(C)c(NC(=O)C2CCCN(S(=O)(=O)c3c[nH]c(C(=O)N4CCCCCC4)c3)C2)c1` (stereo not given) returned an RP-LC retention time of 923 s. In the case of `Cc1c(CNCc2cccnc2)c(C(=O)O)c(C)n1Cc1cccc(F)c1` it was 618 s; in that of `c1ccc(-c2nc(-c3ccc(OC4CNC4)cc3)no2)cc1`, 686 s. In the case of `O=C(CN1C(=O)CCS(=O)(=O)c2ccccc21)Nc1ccccc1C(F)(F)F` it was 746 s; in that of `CCn1cc(S(=O)(=O)N2CCCC2c2noc(CO)n2)cn1` (stereo not given), 619 s. In turn, `Cc1c(-c2nnc(C3CCC3)o2)c(S(=O)(=O)NCc2ccc(Cl)cc2)c(C)n1C` displayed an RP-LC retention time of 1010 s. Consider `Cc1oc(C2CCC2)nc1C(=O)NCc1ccccc1C(F)(F)F`, for which the RP-LC retention time worked out at 1130 s. Turning to `CCOCCCNC(=O)Nc1ccc(CCc2nc3ccccc3[nH]2)cc1`, the RP-LC retention time worked out at 598 s. `CCCCNC(=O)c1c(OCC(C)C)cc(=O)n2c1CCCCC2` yielded an RP-LC retention time of 755 s.

(Values after the METLIN SMRT retention time set (Domingo-Almenara et al. 2019).)
